Measurements: PubChem BioAssay (NCI)
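Test compounds were applied to cells in 96-well plates for 48 hours at 5 doses. TGI: concentration producing complete growth inhibition.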

Key:
Assay in all cases: growth of human tumour cells (NCI), 48 h
786-0 renal = tested on: 786-0 renal
A498 renal = tested on: A498 renal
A549 NSCLC = tested on: A549 NSCLC
ACHN renal = tested on: ACHN renal
BT-549 breast = tested on: BT-549 breast
CAKI-1 renal = tested on: CAKI-1 renal
COLO 205 colon = tested on: COLO 205 colon
DU-145 prostate = tested on: DU-145 prostate
EKVX NSCLC = tested on: EKVX NSCLC
HCC-2998 colon = tested on: HCC-2998 colon
HCT-116 colon = tested on: HCT-116 colon
HCT-15 colon = tested on: HCT-15 colon
HOP-62 NSCLC = tested on: HOP-62 NSCLC
HS 578T breast = tested on: HS 578T breast
HT29 colon = tested on: HT29 colon
IGROV1 ovarian = tested on: IGROV1 ovarian
K-562 leukemia = tested on: K-562 leukemia
KM12 colon = tested on: KM12 colon
LOX IMVI melanoma = tested on: LOX IMVI melanoma
M14 melanoma = tested on: M14 melanoma
MALME-3M melanoma = tested on: MALME-3M melanoma
MCF7 breast = tested on: MCF7 breast
MDA-MB-231 breast = tested on: MDA-MB-231 breast
MDA-MB-435 = tested on: MDA-MB-435
MDA-N = tested on: MDA-N
MOLT-4 leukemia = tested on: MOLT-4 leukemia
NCI-H23 lung = tested on: NCI-H23 lung
NCI-H460 lung = tested on: NCI-H460 lung
NCI-H522 lung = tested on: NCI-H522 lung
NCI/ADR-RES ovarian = tested on: NCI/ADR-RES ovarian
OVCAR-3 ovarian = tested on: OVCAR-3 ovarian
OVCAR-4 ovarian = tested on: OVCAR-4 ovarian
OVCAR-5 ovarian = tested on: OVCAR-5 ovarian
PC-3 prostate = tested on: PC-3 prostate
RPMI-8226 leukemia = tested on: RPMI-8226 leukemia
RXF 393 renal = tested on: RXF 393 renal
SF-295 CNS = tested on: SF-295 CNS
SF-539 CNS = tested on: SF-539 CNS
SK-MEL-2 melanoma = tested on: SK-MEL-2 melanoma
SK-MEL-28 melanoma = tested on: SK-MEL-28 melanoma
SK-MEL-5 melanoma = tested on: SK-MEL-5 melanoma
SK-OV-3 ovarian = tested on: SK-OV-3 ovarian
SN12C renal = tested on: SN12C renal
SNB-19 CNS = tested on: SNB-19 CNS
SNB-75 CNS = tested on: SNB-75 CNS
SR leukemia = tested on: SR leukemia
SW-620 colon = tested on: SW-620 colon
T-47D breast = tested on: T-47D breast
TK-10 renal = tested on: TK-10 renal
U251 CNS = tested on: U251 CNS
UACC-257 melanoma = tested on: UACC-257 melanoma
UACC-62 melanoma = tested on: UACC-62 melanoma
UO-31 renal = tested on: UO-31 renal

Measured: TGI

O=C(O)C1CC2(C1)CC(C(=O)O)C2 (stereo not drawn)
> 100 µM: all assays above
